Two compounds from paper PMC3513945 (Nature chemical biology, 2012) can be followed below.

Broadly, the IC50 is the concentration that gives 50% inhibition. Higher therefore signals weaker potency.

In assay [1] the target is T1, DAGLβ (Mus musculus, UniProt Q91WC9).
T1 sequence (Q91WC9 1-669): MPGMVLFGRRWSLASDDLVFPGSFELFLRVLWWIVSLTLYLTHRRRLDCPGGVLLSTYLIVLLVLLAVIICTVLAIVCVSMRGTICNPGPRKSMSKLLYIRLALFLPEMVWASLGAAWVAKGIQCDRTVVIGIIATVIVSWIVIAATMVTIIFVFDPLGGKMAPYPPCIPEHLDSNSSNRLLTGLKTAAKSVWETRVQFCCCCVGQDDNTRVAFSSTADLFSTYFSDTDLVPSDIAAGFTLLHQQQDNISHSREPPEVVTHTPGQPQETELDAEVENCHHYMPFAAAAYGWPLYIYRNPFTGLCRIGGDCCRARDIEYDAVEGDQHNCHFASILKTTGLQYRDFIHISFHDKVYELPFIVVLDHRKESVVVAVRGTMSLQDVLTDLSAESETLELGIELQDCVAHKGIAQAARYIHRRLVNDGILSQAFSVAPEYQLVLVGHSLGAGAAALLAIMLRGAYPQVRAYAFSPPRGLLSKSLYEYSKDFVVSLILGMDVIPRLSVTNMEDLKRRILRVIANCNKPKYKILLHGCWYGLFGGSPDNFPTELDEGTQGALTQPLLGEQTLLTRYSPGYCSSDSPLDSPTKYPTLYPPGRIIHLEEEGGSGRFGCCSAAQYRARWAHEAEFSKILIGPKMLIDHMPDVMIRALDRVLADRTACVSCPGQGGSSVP
Kind of assay: inhibition of DAGLβ in transfected HEK293T lysate. It is filed as biochemical.

The next assay addresses T2, human DAGLβ (Homo sapiens, UniProt Q8NCG7).
T2 sequence (Q8NCG7 1-672): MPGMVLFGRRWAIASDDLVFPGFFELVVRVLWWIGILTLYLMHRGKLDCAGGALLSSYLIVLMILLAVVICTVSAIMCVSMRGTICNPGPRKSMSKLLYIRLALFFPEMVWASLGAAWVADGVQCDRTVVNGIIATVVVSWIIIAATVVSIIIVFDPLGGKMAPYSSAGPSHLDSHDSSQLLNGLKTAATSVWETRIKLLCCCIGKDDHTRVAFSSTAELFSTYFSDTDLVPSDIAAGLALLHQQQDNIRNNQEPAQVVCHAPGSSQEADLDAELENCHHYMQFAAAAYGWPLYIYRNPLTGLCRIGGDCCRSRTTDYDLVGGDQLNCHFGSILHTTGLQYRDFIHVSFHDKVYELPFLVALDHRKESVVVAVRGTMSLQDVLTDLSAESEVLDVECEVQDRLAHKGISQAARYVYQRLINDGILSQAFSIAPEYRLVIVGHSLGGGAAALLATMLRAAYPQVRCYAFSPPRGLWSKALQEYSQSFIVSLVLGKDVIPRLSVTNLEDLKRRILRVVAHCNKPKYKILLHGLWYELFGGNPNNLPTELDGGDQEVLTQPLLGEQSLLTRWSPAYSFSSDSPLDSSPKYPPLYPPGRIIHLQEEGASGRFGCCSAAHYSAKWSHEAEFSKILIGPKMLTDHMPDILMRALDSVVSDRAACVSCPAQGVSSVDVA
Kind of assay: in vitro inhibition of human DAGLβ activity. It is filed as cell-based.

The target in another assay is T3, ABHD6 (Mus musculus, UniProt Q8R2Y0).
T3 sequence (Q8R2Y0 1-336): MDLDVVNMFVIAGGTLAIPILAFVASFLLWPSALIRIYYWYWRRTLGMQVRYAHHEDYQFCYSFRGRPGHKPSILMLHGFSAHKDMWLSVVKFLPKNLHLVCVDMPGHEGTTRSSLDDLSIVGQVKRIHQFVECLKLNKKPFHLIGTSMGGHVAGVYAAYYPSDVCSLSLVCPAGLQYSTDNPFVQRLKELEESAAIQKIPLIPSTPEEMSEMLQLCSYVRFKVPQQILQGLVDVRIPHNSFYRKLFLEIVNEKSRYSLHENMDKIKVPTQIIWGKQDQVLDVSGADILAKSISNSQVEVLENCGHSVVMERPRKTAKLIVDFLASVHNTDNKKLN
Kind of assay: competitive ABPP in mouse brain proteome. It is filed as biochemical.

Assay [2] concerns the target T1, DAGLβ. The assay can be described thus: competitive ABPP on DAGLβ-transfected HEK293T proteome. The format is biochemical.

Regarding `O=C(N1CCCCC1Cc1ccccc1)n1cc(-c2ccc(Br)cc2)nn1` (stereo not shown) [compound 31, KT116], the IC50 on DAGLβ [1] amounted to 30 nM.

In the case of `O=C(N1CCCCC1Cc1ccccc1)n1cc(-c2ccc(-c3ccccc3)cc2)nn1` (stereo not shown) [compound 32, KT109], the IC50 at human DAGLβ was determined as 580 nM; at ABHD6 it was 16 nM; on DAGLβ [2] it was 42 nM.
